Test results as given in US10292390B2, “Inhibition and dispersion of bacterial biofilms with 2-aminobenzimidazole derivatives” (WISCONSIN ALUMNI RESEARCH FOUNDATION, priority 2011, dated 2019).
Entries after “also recorded” stand apart in the source; their conditions may differ.

Legend:
P. aeruginosa biofilm = assay: effects of metals on biofilm inhibition; format: cell-based, Pseudomonas aeruginosa; conditions: compound at 250 μM; Cu(II)SO4, Fe(II)SO4, Fe(III)Cl3, Zn(II)SO4 up to 1000 μM; 24 h
Protocol: Microtiter plates were first prepared by adding 50 μL aliquots of a 1 mM EtOH stock solution of 7 to each well in order to effect a final well concentration upon inoculum addition of 250 μM; this concentration was chosen as it is approximately the minimum concentration of 7 showing maximal biofilm inhibition. The EtOH was then removed by drying at 37° C., and the plates were sterilized. Directly prior to inoculation, 100 mM stock solutions of metals were freshly prepared in 18 MΩ H2O and diluted in series in a polypropylene 96-well microtiter plate (Costar 3879) to achieve stocks with the following concentrations: 100, 75, 50, 25, 12.5, 6.25, 1.25, 0.25, 0.05, and 0 mM. The choice of metals for evaluation was based on the results of the UV-Vis studies and included Cu(II)SO4, Fe(II)SO4.7H2O, Fe(III)Cl3.6H2O, and Zn(II)SO4.7H2O. Using a 10 μL multi-channel pipette, 2 μL aliquots of the metal stock solutions were added to the side of wells, avoiding contact with dried 7 on the bottom of the well. […] The highest metal:7 ratio obtained was 4:1 (1000 μM metal to 250 μM 7), which was assumed to be sufficient to see any mitigating effect based on our UV-Vis studies. […] All samples were tested in replicates of 3 wells and were assessed for biofilm production after 24 h incubation by CV staining and quantification.

[1] = UV-Vis metal binding studies; format: physicochemical; conditions: compound:metal ratios of approximately 1:1; preliminary
COS-7 cells = assay: fluorescence-based live/dead cytotoxicity assay; format: cell-based; conditions: 24 hrs, live/dead staining
Protocol: Experiments to characterize the toxicity of exemplary compound 21 in a model mammalian cell line were conducted by incubating COS-7 African Green Monkey kidney cells (American Type Culture Collection, Manassas, Va.), a fibroblast-like mammalian cell line, in the presence of varying amounts of compound 21 and characterizing resulting levels of cell death using a standard fluorescence-based live/dead assay. Cells were seeded in 96-well plates by adding 200 μL of a suspension containing 50,000 cells/mL in cell culture media (Gibco® DMEM supplemented with 10% (v/v) fetal bovine serum, 100 units/mL penicillin, and 100 μg/mL streptomycin) in individual wells of a black-walled, clear-bottomed 96-well cell culture plate (Costar 3603). […] Fluorescence microscopy images of the wells were acquired using an Olympus IX70 microscope and Metavue version 7.1.2.0 software package (Molecular Devices, Toronto, Canada). Images were analyzed using Image J 1.43u (National Institutes of Health; Washington, D.C.). Live and dead cell results were also analyzed by averaging the mean fluorescence from a minimum of six images taken from three replicate samples and normalized to untreated (live control) and methanol-treated (dead control) wells (see FIG. 20).

[2] = solubility of stock in 95:5 M9+:LB media; format: physicochemical; conditions: at 3.16 mM in 95:5 M9+:LB media
Protocol: Compounds 7 and 21 were evaluated for their ability to disperse preformed P. aeruginosa biofilms. For biofilm dispersion assessment, the static CV biofilm assay described above was modified in order to introduce compound to preformed biofilm for an additional incubation period. Solvent evaporation delivery of compound was not possible in this format; thus, stock solutions of compounds 7 and 21 were prepared in 95:5 M9+:LB media. Stocks of 7 and 21 were prepared at 3.16 mM and 1 mM, respectively (21 was insoluble at 3.16 mM). These stocks were diluted in series to obtain final concentrations as follows: 10^x μM where x=3.5 (7 only), 3, 2.5, 2, 1.5 (21 only), 1, 0, −1, or −2. Biofilms were allowed to form in microtiter plates in the absence of compound for 24 h, after which non-biofilm material was removed by dumping and washing as normal with sterile PBS. After the second washing, 200 μL of fresh 95:5 M9+:LB media containing compound at various concentrations was added to the wells, and the plates were incubated at 37° C. for an additional 24 h. […] Biofilm was fixed and quantified with CV as described above. The amount of dispersed biofilm was determined via comparison of the amount of biofilm at 48 h in the presence of compound versus the amount of biofilm in the “no compound” positive control at 24 h. […]

| Compound | mitigating effect of metals on biofilm inhibitory activity (P. aeruginosa biofilm) | interaction with metals [1] | concentrations at which not substantially cytotoxic (COS-7 cells) | solubility [2] |
| --- | --- | --- | --- | --- |
| Nc1nc2ccccc2[nH]1 [Compound 7, 2-aminobenzimidazole] | none of the tested metals were able to mitigate the biofilm inhibitory activity; also recorded: observed no change in activity | able to interact with certain metals | – | – |
| Cc1cc2nc(N)[nH]c2cc1C [Compound 21, 5,6-Dimethyl-2-aminobenzimidazole] | – | – | below 0.25 mM | insoluble |
